# Experimental data: EP1724268A1, “COMPOUND HAVING TGF-BETA INHIBITORY ACTIVITY AND PHARMACEUTICAL COMPOSITION CONTAINING SAME” (KIRIN BEER KABUSHIKI KAISHA, priority 2004, dated 2005)
# Like-named read-outs stand apart in the source and are kept apart here.
# Tested on: TGFβ signal
# Test: TGFβ signal inhibitory activity, (SBE)4-Luc reporter in A549 cells (Test Examples 1A and 1B)
# Format: cell-based, human
# Details: Homo sapiens, A549, read-out: TGFβ inhibition rate, %
# Description: Test Example 1A: TGFβ signal inhibitory activity (in vitro test) The compounds according to the present invention was evaluated for TGFβ signal inhibitory activity according to the method described in J. Boil .Chem., 273, 21145-21152 (1998). Specifically, a plasmid having four tandem binding sequences of Smad3, a TGF-beta signal transducer, to the upstream of a luciferases gene were used as a reporter plasmid ((SBE)4-Luc) to detect TGF-beta signal, This reporter gene was introduced into human pulmonary carcinoma epithelial cells (A549) (available from ATCC) to establish a stable cell line. A test compound and TGFβ-1 (2 ng/ ml) were added to the cells, and the mixture was cultured for 4 hr. In this case, the compounds according to the present invention synthesized in the Examples were used as the test compound. After the culture, the luciferase activity of the cells were measured by chemiluminescence (Steady Glo (trademark) luciferase assay system, available from Promega). Likewise, the luciferase activity was measured as a control against the culture of cells with the addition of TGFβ only and the culture of cells without the addition of both TGFβ and the test compound.
# The TGFβ inhibition (%) was calculated by the following equation, based on the measurement results. TGFβ inhibition(%) = (A-B)/(A-C) × 100 [formula] wherein • A: luciferase activity with the addition of TGFβ1 and without the addition of test compound (relative luciferase unit), • B: luciferase activity with the addition of both TGFβ1 and test compound (relative luciferase unit), and • C: luciferase activity without the addition of both TGFβ1 and test compound (relative luciferase unit).
# The test was carried out for each of test compound at the concentrations of 3 µM and 10 µM. For certain test compounds, the test was further carried out for test compound at the concentration of 1 µM.
# For the compounds of Reference Examples, the TGFβ signal inhibitory activity was evaluated in the same manner as in Test Example 1A.
# [1] = 3 µM, compounds of Reference Examples (Test Example 1B)
# [2] = 10 µM, compounds of Reference Examples (Test Example 1B)
# [3] = test compound 3 µM, TGFβ-1 2 ng/ml, 4 hr, Table 1A
# [4] = test compound 10 µM, TGFβ-1 2 ng/ml, 4 hr, Table 1A
# [5] = test compound 3 µM, Reference Examples, Table 1B
# [6] = test compound 10 µM, Reference Examples, Table 1B
smiles,measurement,setting,value
"COc1cc2c(Oc3cc4ccccc4nc3C)ccnc2cc1OCc1ccccc1 [Compound r351, 7-Benzyloxy-6-methoxy-4-(2-methyl-quinolin-3-yloxy)-quinoline]",inhibition at 3 µM,[1],42%
same,inhibition at 10 µM,[2],90%
COc1cc2nccc(Oc3cc(C)c(SC)cc3C(C)=O)c2cc1OC [Compound r186],inhibition at 3 µM,[1],76%
same,inhibition at 10 µM,[2],100%
"Cc1cc(Oc2ccnc3cc(-c4ccccc4N)ccc23)c(-c2ccccn2)nc1C [Compound 108, 2-[4-(5,6-Dimethyl-[2,2']bipyridinyl-3-yloxy)-quinolin-7-yl]-phenylamine]",inhibition at 3 µM,[3],96%
same,inhibition at 10 µM,[4],100%
CCOC(=O)C(Oc1cc2nccc(Oc3cc4ccccc4nc3C)c2cc1OC)C(=O)OCC [Compound r373],inhibition at 3 µM,[1],48%
same,inhibition at 10 µM,[2],86%
COc1cc2nccc(Oc3ccc(C)nc3-c3cccc(C)n3)c2cc1OC [Compound r264],inhibition at 3 µM,[1],88%
same,inhibition at 10 µM,[2],100%
CCOC(=O)c1cc(F)ccc1Oc1ccnc2cc(OC)c(OC)cc12 [Compound r83],inhibition at 3 µM,[5],41%
same,inhibition at 10 µM,[6],81%
COc1cc2nccc(Oc3ccc(C)nc3[N+](=O)[O-])c2cc1OC [r210],inhibition at 3 µM,[1],45%
same,inhibition at 10 µM,[2],80%
"Cc1cc(Oc2ccnc3cc(Cl)ccc23)c(-c2ccccn2)nc1C [Compound 13, 3-(7-Chloro-quinolin-4-yloxy)-5,6-dimethyl-[2,2']bipyridine]",inhibition at 3 µM,[3],99%
same,inhibition at 10 µM,[4],100%
COc1cc2c(Oc3cc4ccccc4nc3C)ccnc2cc1OCCN [Compound r354],inhibition at 3 µM,[1],100%
same,inhibition at 10 µM,[2],100%
CCC(O)c1cc(OC)ccc1Oc1ccnc2cc(OC)c(OC)cc12 (centres unmarked) [Compound r11],inhibition at 3 µM,[5],28%
same,inhibition at 10 µM,[6],66%
COc1cc2c(Oc3ccc(C)cc3C(=O)c3ccccc3)ccnc2cc1OCCCl [r123],inhibition at 3 µM,[5],98%
same,inhibition at 10 µM,[6],100%
"COc1cc2nccc(Oc3cc4c(nc3-c3ccccc3)NCCC4)c2cc1C(=O)NCc1ccccc1 [Compound 99, 7-Methoxy-4-(2-phenyl-5,6,7,8-tetrahydro-[1,8]naphthyridin-3-yloxy)-quinoline-6-carboxylate benzylamide]",inhibition at 3 µM,[3],76%
same,inhibition at 10 µM,[4],92%
COc1cc2c(Oc3cc(C)c(C)nc3-c3ccccc3)ccnc2cc1OCCO [Compound r333],inhibition at 3 µM,[1],100%
COc1cc2c(Oc3cc4ccccc4nc3C)ccnc2cc1OCCCN1C(=O)c2ccccc2C1=O [Compound r380],inhibition at 3 µM,[1],50%
same,inhibition at 10 µM,[2],89%
"COc1cc2c(Oc3cc4ccccc4nc3C)ccnc2cc1OCC1CO1 (centres unmarked) [Compound r383, 6-Methoxy-4-(2-methyl-quinolin-3-yloxy)-7-oxilanyl methoxy-quinoline]",inhibition at 3 µM,[1],97%
same,inhibition at 10 µM,[2],100%
"Cc1cc(Oc2ccnc3ccc(-c4ncccn4)cc23)c(-c2ccccn2)nc1C [Compound 175, 5,6-Dimethyl-3-(6-pyrimidin-2-yl-quinolin-4-yloxy)-[2,2']bipyridine]",inhibition at 3 µM,[3],97%
same,inhibition at 10 µM,[4],100%
"Cc1cc(Oc2ccnc3cc(-c4cccc(O)c4)ccc23)c(-c2ccccn2)nc1C [Compound 106, 3-[4-(5,6-Dimethyl-[2,2']bipyridinyl-3-yloxy)-quinolin-7-yl]-phenol]",inhibition at 3 µM,[3],99%
same,inhibition at 10 µM,[4],100%
"c1ccc(-c2nc3ncccc3cc2Oc2ccnc3ccsc23)cc1 [Compound 71, 2-Phenyl-3-(thieno[3,2-b]pyridin-7-yloxy)-[1,8]naphthyridine]",inhibition at 3 µM,[3],93%
same,inhibition at 10 µM,[4],100%
COc1cc2c(Oc3cc4ccccc4nc3C)ccnc2cc1OCCCl [Compound r353],inhibition at 3 µM,[1],54%
same,inhibition at 10 µM,[2],86%
"COc1cncc(-c2nc(C)c(C)cc2Oc2ccnc3cc(OC)c(OC)cc23)c1 [Compound 45, 3-(6,7-Dimethoxy-quinolin-4-yloxy)-5'-methoxy-5,6-dimethyl-[2,3']bipyridine]",inhibition at 3 µM,[3],89%
same,inhibition at 10 µM,[4],100%
COc1cc2nccc(Oc3ccc(C)nc3-c3ccsc3)c2cc1OC [r255],inhibition at 3 µM,[1],93%
same,inhibition at 10 µM,[2],100%
"COc1cc2ncnc(Oc3cc(C)c(C)nc3-c3cccc(C)n3)c2cc1OC [Compound 41, 6,7-Dimethoxy-4-(5,6,6'-trimethyl-[2,2']bipyridin-3-yloxy)-quinazoline]",inhibition at 3 µM,[3],66%
same,inhibition at 10 µM,[4],98%
"COc1cc2nccc(Oc3ccc4c(ccn4C)c3)c2cc1OC [Compound r20, 6,7-Dimethoxy-4-[(1-methyl-5-indolyl)oxy]quinoline]",inhibition at 3 µM,[5],19%
same,inhibition at 10 µM,[6],69%
"COc1cc2nccc(Oc3ccc(C)cc3Nc3ccccc3)c2cc1OC [Compound r14, N-[2-[(6,7-Dimethoxy-4-quinolyl)oxy]-5-methylphenyl]-N-phenylamine]",inhibition at 3 µM,[5],15%
same,inhibition at 10 µM,[6],64%
CCOC(=O)c1cc(-c2ccc(F)cc2F)ccc1Oc1ccnc2cc(OC)c(OC)cc12 [Compound r89],inhibition at 3 µM,[5],20%
same,inhibition at 10 µM,[6],63%
"Cc1cc(Oc2ccnc3ccccc23)c(-c2cccnc2)nc1C [Compound 43, 5,6-Dimethyl-3-(quinolin-4-yloxy)-[2,3']bipyridine]",inhibition at 1 µM,"test compound 1 µM, TGFβ-1 2 ng/ml, 4 hr, Table 1A",45%
same,inhibition at 3 µM,[3],84%
COc1cc2c(Oc3ccc(C)cc3C(=O)c3ccccc3)ccnc2cc1OCCN1CCN(C)CC1 [Compound r129],inhibition at 3 µM,[5],100%
same,inhibition at 10 µM,[6],100%
COc1cc2nccc(Oc3cc(Cl)ccc3C(C)=O)c2cc1OC [r181],inhibition at 3 µM,[1],42%
same,inhibition at 10 µM,[2],82%
COc1cc2nccc(Oc3cc(C)c(C)cc3C(C)=O)c2cc1OC [Compound r38],inhibition at 3 µM,[5],98%
same,inhibition at 10 µM,[6],100%
COc1cc2c(Oc3cc(C)c(C)nc3-c3cccnc3)ccnc2cc1O [Compound r345],inhibition at 3 µM,[1],61%
same,inhibition at 10 µM,[2],93%
"Cc1ccc(Oc2ccnc3ccc(OCC(C)(C)C)cc23)c(-c2ncccn2)n1 [Compound 214, 6-(2,2-Dimethyl-propoxy)-4-(6-methyl-2-pyrimidin-2-yl-pyridin-3-yloxy)-quinoline]",inhibition at 3 µM,[3],90%
COc1cc2nccc(Oc3cc4cccnc4nc3C)c2cc1OC [Compound r310],inhibition at 3 µM,[1],72%
same,inhibition at 10 µM,[2],97%
"Cc1ccc2nccc(Oc3cc(C)c(C)nc3-c3ccccn3)c2c1 [Compound 157, 5,6-Dimethyl-3-(6-methyl-quinolin-4-yloxy)-[2,2']bipyridine]",inhibition at 3 µM,[3],99%
same,inhibition at 10 µM,[4],100%
COc1cc2nccc(Oc3ccc(F)nc3)c2cc1OC [r205],inhibition at 3 µM,[1],26%
same,inhibition at 10 µM,[2],57%
COc1cc2c(Oc3cc4ccccc4nc3C)ccnc2cc1OC(CO)CO [Compound r374],inhibition at 3 µM,[1],26%
same,inhibition at 10 µM,[2],79%
COc1cc2nccc(Oc3ccc(C)cc3C)c2cc1OC [r5],inhibition at 3 µM,[5],13%
same,inhibition at 10 µM,[6],56%
COc1cc2nccc(Oc3c(C)nc4ccccc4c3Br)c2cc1OC [r291],inhibition at 3 µM,[1],14%
same,inhibition at 10 µM,[2],78%
"COc1cc2nccc(Oc3ccc(C)nc3-c3cc(C)n(C)n3)c2cc1OC [Compound r256, 4-[2-(1,5-Dimethyl-1H-pyrazol-3-yl)-6-methyl-pyridin-3-yloxy]-6,7-dimethoxy-quinoline]",inhibition at 3 µM,[1],98%
same,inhibition at 10 µM,[2],100%
"Cc1cc(Oc2ncnc3sccc23)c(-c2ccccn2)nc1C [Compound 32, 5,6-Dimethyl-3-(thieno[2,3-d]pyrimidin-4-yloxy)-[2,2']bipyridine]",inhibition at 3 µM,[3],64%
same,inhibition at 10 µM,[4],94%
"COc1cc2c(Oc3cc4cccnc4nc3-c3ccccc3)ccnc2cc1C [Compound 62, 3-(6-Methoxy-7-methyl-quinolin-4-yloxy)-2-phenyl-[1,8]naphthyridine]",inhibition at 3 µM,[3],99%
same,inhibition at 10 µM,[4],100%
COc1cc2nccc(Oc3cc(Cl)c(C)cc3C(C)=O)c2cc1OC [Compound r184],inhibition at 3 µM,[1],100%
same,inhibition at 10 µM,[2],100%
COc1cc2nccc(Oc3cc4ccccc4nc3I)c2cc1OC [r282],inhibition at 3 µM,[1],96%
same,inhibition at 10 µM,[2],100%
CCC(=O)c1cc(OC)ccc1Oc1ccnc2cc(OC)c(OC)cc12 [Compound r50],inhibition at 3 µM,[5],100%
same,inhibition at 10 µM,[6],100%
"COc1cc2nccc(Oc3cc4cccnc4cc3-c3ccccc3)c2cc1OC [Compound r299, 6,7-Dimethoxy-4-(7-phenyl-quinolin-6-yloxy)-quinoline]",inhibition at 3 µM,[1],99%
same,inhibition at 10 µM,[2],100%
